# Assay results published in patent US11590130B2, “Combinations of a tubulin polymerization inhibitor and a poly (ADP-ribose) polymerase (PARP) inhibitor for use in the treatment of cancer” (NOVIGA RESEARCH AB, priority 2018, dated 2023).
# Assays:
# [1] = system: patient-derived xenograft of ovarian cancer (Ov10584); assay: Anti-tumor efficacy of NOV202 alone and in combination with olaparib in patient-derived xenograft of ovarian cancer (Example 1); type: in vivo; conditions: for T/C (tumor/control) value: NMRI:nu/nu mice, Ov10584 s.c., once a day for 14 days (days 8-22), combination same dosage and schedule
# From the text: A Study of Anti-Tumor Efficacy of NOV202 Alone and in Combination with Olaparib in a Patient-Derived Xenograft of Ovarian Cancer (Ov10584)
# NMRI:nu/nu female (Janvier) mice (8 weeks old) were used as follows: 4 animals in the vehicle group, 4 animals in NOV202 group, Olaparib group and in the combination group of NOV202 and olaparib, respectively. NOV202 was synthesized as described in WO 2012/127032. Olaparib was purchased from LC Laboratories. The patient-derived xenograft Ov10584 was used at passage number 7. All mice received tissue fragments of 2×2 mm subcutaneously at day 0, and tumors were allowed to reach palpable sizes of 118 mm^3 (mean) (the study day 8) prior to start the treatments. NOV202 group was administered PO at a dose 30 mg/kg and olaparib group was administered PO at a dose 100 mg/kg. The combination of NOV202 and olaparib group had the same dosage and schedule as in monotherapy. NOV202 was given in the morning (5 ml/kg) and olaparib in the afternoon (10 ml/kg). All three groups were administered 14 days once a day (days 8-22). The tumor volumes and body weights of animals were measured at regular intervals (day 7, 9, 13, 15, 19, 22, 27, all groups, and continued to measure the combination group day 29, 33, 36, 40, 43, 47, 50, 54, 57).
# [2] = system: patient-derived xenograft Ov10584; assay: Anti-tumor efficacy of NOV202 with olaparib vs. plinabulin with olaparib in patient-derived xenograft of ovarian cancer (Example 2); type: in vivo; conditions: NMRI:nu/nu mice, Ov10584 s.c.; NOV202 30 mg/kg PO and olaparib 100 mg/kg PO once a day days 6-19; plinabulin 7.5 mg/kg i.p. days 1, 4, 8, 11, 15; combinations same dosage and schedule
# From the text: A Study of Anti-Tumor Efficacy of Combination of NOV202 with Olaparib Vs. Combination Plinabulin with Olaparib in a Patient-Derived Xenograft of Ovarian Cancer ([…])
# NMRI:nu/nu female (Janvier) mice (8 weeks old) were used as follows: 4 animals in the vehicle group, 4 animals in NOV202 group, olaparib group, plinabulin group, in the combination group of NOV202 and Olaparib, and in the combination group of plinabulin and olaparib, respectively. NOV202 was synthesized as described in WO 2012/127032. Olaparib was purchased from LC Laboratories, and plinabulin was purchased from Sellechem. The patient-derived xenograft Ov10584 was used at passage number 4. All mice received tissue fragments of 2×2 mm subcutaneously into the left flank at day 0, and tumors were allowed to reach palpable sizes of 108 mm^3 (mean) (the study day 6) prior to start the treatments. NOV202 group was administered PO at a dose 30 mg/kg and olaparib group was administered PO at a dose 100 mg/kg, and plinabulin was administered i.p. at a dose 7.5 mg/kg. The combination of NOV202 and olaparib group had the same dosage and schedule as in monotherapy, NOV202 was given in the morning (5 ml/kg) and olaparib in the afternoon (10 ml/kg). The combination of plinabulin and olaparib group had also the same dosage and schedule as in monotherapy. NOV202 and olaparib was administered 14 days once a day (days 6-19), and plinabulin was administered days 1, 4, 8, 11, 15 once a day. The tumor volumes and body weights of animals were measured at regular intervals (day 6, 7, 9, 12, 14, 16, 19, 23, 26 and 29), all groups.
# human OC xenograft model = assay: In vivo efficacy study in a human OC xenograft model
# From the text: Development of the tumour vasculature system is essential to tumour growth and metastatic spread of malignant cells. The rationale behind using vasculature targeting agents in anti-cancer therapy is that the cancer cells will be deprived of essential nutrients and oxygen supply for their growth and spread, thereby improving treatment outcome.
# [3] = system: ovarian cancer (OC) cell line A2780; assay: Anti-proliferative activity in human cancer cell lines; type: cell-based; conditions: A2780 cells
# From the text: (§1) Compounds of Formula I, including NOV202, exerts its action by inhibition of tubulin polymerization and thereby the assembly of microtubule structures, which cause a cell cycle arrest and cell death via apoptosis. […] The A2780/Adr multidrug resistant OC cell line overexpresses the P-glycoprotein efflux transporters which confer multidrug resistance.
# [4] = system: A2780/Adr multidrug resistant OC cell line; assay: Activity in multidrug resistant OC cells; type: cell-based, human; conditions: A2780/Adr overexpresses P-glycoprotein efflux transporters
# From the text: as §1
# [5] = NOV202 30 mg/kg PO, olaparib 100 mg/kg PO
SMILES,"T/C (tumor/control) value [1, 5]","tolerability ([1]; daily treatment for 14 days, NOV202 30 mg/kg PO, olaparib 100 mg/kg PO)","body weight loss ([1]; one day after treatment stop, 30 mg/kg NOV202 daily for 14 days, mice recovered soon)",T/C (tumor/control) value [2],"suppression of tumour growth (human OC xenograft model; human OC xenograft, similar to paclitaxel in this model)",tolerability (human OC xenograft model; oral gavage over a period of 20 days),anti-proliferative activity [3],effectiveness in multidrug resistant versus isogenic non-resistant OC cells [4]
"COc1ccc2[nH]cc(CCNc3nccc(Nc4cccc5c4ccn5C)n3)c2c1 [NOV202, N^2-[2-(5-methoxy-1H-indol-3-yl)ethyl]-N^4-(1-methyl-1H-indol-4-yl)pyrimidine-2,4-diamine]",37%,well tolerated,6%,32%,up to 80%,well tolerated,very potent,as effective in multidrug resistant OC cells as in the isogenic (drug sensitive variant) non-resistant OC cells
"O=C(c1cc(Cc2n[nH]c(=O)c3ccccc23)ccc1F)N1CCN(C(=O)C2CC2)CC1 [olaparib, 4-(3-{[4-(cyclopropylcarbonyl)piperazin-1-yl]carbonyl}-4-fluorobenzyl)phthalazin-1(2H)-one, reference compound]",20%,,,45%,,,,
"CC(C)(C)c1[nH]cnc1/C=c1\[nH]c(=O)/c(=C/c2ccccc2)[nH]c1=O [plinabulin, (3Z,6Z)-3-Benzylidene-6-{[5-(2-methyl-2-propanyl)-1H-imidazol-4-yl]methylene}-2,5-piperazinedione]",,,,58%,,,,
